Results reported in patent US11208400B2, “Substituted 6-(1H-pyrazol-1-yl)pyrimidin-4-amine derivatives and uses thereof” (Bayer Aktiengesellschaft, priority 2016, dated 2021).

Biological target: T1, human Npt2a (Homo sapiens, UniProt Q06495)
T1 construct: expressed in transfected cells
T1 sequence (Q06495 1-639): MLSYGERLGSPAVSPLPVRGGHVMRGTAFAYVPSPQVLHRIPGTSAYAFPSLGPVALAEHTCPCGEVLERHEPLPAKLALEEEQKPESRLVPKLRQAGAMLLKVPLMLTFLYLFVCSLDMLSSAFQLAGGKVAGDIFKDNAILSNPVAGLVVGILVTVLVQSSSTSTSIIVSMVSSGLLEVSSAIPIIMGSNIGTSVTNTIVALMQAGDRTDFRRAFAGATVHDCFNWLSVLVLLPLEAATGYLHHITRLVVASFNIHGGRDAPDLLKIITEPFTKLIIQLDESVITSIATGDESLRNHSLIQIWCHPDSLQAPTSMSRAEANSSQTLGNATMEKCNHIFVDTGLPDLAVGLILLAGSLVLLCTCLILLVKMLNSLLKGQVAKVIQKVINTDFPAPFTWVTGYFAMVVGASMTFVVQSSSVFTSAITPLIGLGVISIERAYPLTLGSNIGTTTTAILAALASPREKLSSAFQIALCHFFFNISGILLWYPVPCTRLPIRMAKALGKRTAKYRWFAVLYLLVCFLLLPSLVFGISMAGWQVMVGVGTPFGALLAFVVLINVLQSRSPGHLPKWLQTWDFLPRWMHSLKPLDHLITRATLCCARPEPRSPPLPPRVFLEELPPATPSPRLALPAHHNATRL
Assay: Npt2a activity cell based assay, membrane potential dye, CHO T-REx hNpt2a cells
Conditions: doxycycline-induced, depolarization by sodium phosphate influx, average or median values if tested more than once
How it was run: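 Doxycycline-induced (0.5 μg/mL, 24 h) CHO T-REx cells were loaded with membrane potential dye in sodium-free NHE buffer (pH 7.4) and exposed to compound (50 μM–1 nM, 5 min, room temperature).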

`CCc1c(Nc2cc(-n3nc(C)cc3CO)ncn2)nn(C)c1-c1ccc(F)cc1` [Example 104, [1-(6-{[4-ethyl-5-(4-fluorophenyl)-1-methyl-1H-pyrazol-3-yl]amino}pyrimidin-4-yl)-3-methyl-1H-pyrazol-5-yl]methanol] gave an IC50 of 150 nM.

Work on `CCc1c(Nc2cc(-n3nc(C)c(C(=O)N4CCCCC4)c3C)ncn2)nn(C)c1-c1ccc(F)cc1` [Example 105, [1-(6-{[4-ethyl-5-(4-fluorophenyl)-1-methyl-1H-pyrazol-3-yl]amino}pyrimidin-4-yl)-3,5-dimethyl-1H-pyrazol-4-yl](piperidin-1-yl)methanone] yielded an IC50 of 235 nM.

Work on `CCc1c(Nc2cc(-n3nc(C)c(C#N)c3C)ncn2)n[nH]c1-c1ccc(F)cc1` [Example 108, 1-(6-{[4-ethyl-5-(4-fluorophenyl)-1H-pyrazol-3-yl]amino}pyrimidin-4-yl)-3,5-dimethyl-1H-pyrazole-4-carbonitrile] yielded an IC50 of 94 nM.

For `Cc1nn(-c2cc(Nc3nn(C)c(-c4ccc(F)cc4)c3C)ncn2)c(C)c1C(C)(C)O` [Example 109, 2-[1-(6-{[5-(4-fluorophenyl)-1,4-dimethyl-1H-pyrazol-3-yl]amino}pyrimidin-4-yl)-3 5-dimethyl-1H-pyrazol-4-yl]propan-2-ol], the IC50 was 50.3 nM.

For `Cc1nn(-c2cc(Nc3nn(C)c(-c4ccc(F)cc4)c3Cl)ncn2)c2ccccc12` [Example 110, N-[4-chloro-5-(4-fluorophenyl)-1-methyl-1H-pyrazol-3-yl]-6-(3-methyl-1H-indazol-1-yl)pyrimidin-4-amine], the IC50 was 22 nM.

In the case of `CCc1c(Nc2cc(-n3nc(C)cc3C)ncn2)nn(CCO)c1-c1ccc(F)cc1` [Example 111, 2-[3-{[6-(3,5-dimethyl-1H-pyrazol-1-yl)pyrimidin-4-yl]amino}-4-ethyl-5-(4-fluorophenyl)-1H-pyrazol-1-yl]ethanol], the IC50 is reported as 360 nM.

`CCc1c(Nc2cc(-n3nc(C)c(C#N)c3C)ncn2)nn(C)c1-c1ccc(F)cc1` [Example 112, 1-(6-{[4-ethyl-5-(4-fluorophenyl)-1-methyl-1H-pyrazol-3-yl]amino}pyrimidin-4-yl)-3,5-dimethyl-1H-pyrazole-4-carbonitrile] showed an IC50 of 59.5 nM.

With `CC(=O)c1c(C)nn(-c2cc(Nc3nn(C)c(-c4ccc(F)cc4)c3C)ncn2)c1C` [Example 113, 1-[1-(6-{[5-(4-fluorophenyl)-1,4-dimethyl-1H-pyrazol-3-yl]amino}pyrimidin-4-yl)-3,5-dimethyl-1H-pyrazol-4-yl]ethanone] the IC50 was 32 nM.

With `CCc1c(Nc2cc(-n3nc(C)cc3C)ncn2)nn(S(C)(=O)=O)c1-c1ccc(F)cc1` [Example 114, 6-(3,5-dimethyl-1H-pyrazol-1-yl)-N-[4-ethyl-5-(4-fluorophenyl)-1-(methylsulfonyl)-1H-pyrazol-3-yl]pyrimidin-4-amine] the IC50 was 290 nM.

For `CCc1c(-c2ccc(F)cc2)nn(CC2CC2)c1Nc1cc(-n2nc(C)c(Cl)c2C)ncn1` [Example 115, 6-(4-chloro-3,5-dimethyl-1H-pyrazol-1-yl)-N-[1-(cyclopropylmethyl)-4-ethyl-3-(4-fluorophenyl)-1H-pyrazol-5-yl]pyrimidin-4-amine], the IC50 was < 1.6 nM.

`Cc1cc(C)n(-c2cc(Nc3c(C)c(-c4ccc(OC(F)(F)F)cc4)nn3C)ncn2)n1` [Example 116, 6-(3,5-dimethyl-1H-pyrazol-1-yl)-N-{1,4-dimethyl-3-[4-(trifluoromethoxy)phenyl]-1H-pyrazol-5-yl}pyrimidin-4-amine] gave an IC50 of 92.5 nM.

Work on `Cc1nn(-c2cc(Nc3nn(C)c(-c4ccc(OC(F)(F)F)cc4)c3C)ncn2)c(C)c1Cl` [Example 117, 6-(4-chloro-3,5-dimethyl-1H-pyrazol-1-yl)-N-{1,4-dimethyl-5-[4-(trifluoromethoxy)phenyl]-1H-pyrazol-3-yl}pyrimidin-4-amine] yielded an IC50 of 19 nM.

In the case of `Cc1cc(C)n(-c2cc(Nc3nn(C)c(-c4ccc(C#N)cc4)c3C)ncn2)n1` [Example 118, 4-(3-{[6-(3,5-dimethyl-1H-pyrazol-1-yl)pyrimidin-4-yl]amino}-1,4-dimethyl-1H-pyrazol-5-yl)benzonitrile], the IC50 is reported as 7 nM.

For `CCc1c(-c2ccc(F)cc2)nn(C2CC2)c1Nc1cc(-n2nc(C)cc2C)ncn1` [Example 119, N-[1-cyclopropyl-4-ethyl-3-(4-fluorophenyl)-1H-pyrazol-5-yl]-6-(3,5-dimethyl-1H-pyrazol-1-yl)pyrimidin-4-amine], the IC50 was 870 nM.

In the case of `CCc1c(-c2ccc(F)cc2)nn(C2CC2)c1Nc1cc(-n2nc(C)c(Cl)c2C)ncn1` [Example 120, 6-(4-chloro-3,5-dimethyl-1H-pyrazol-1-yl)-N-[1-cyclopropyl-4-ethyl-3-(4-fluorophenyl)-1H-pyrazol-5-yl]pyrimidin-4-amine], the IC50 is reported as 1450 nM.

For `CCc1c(-c2ccc(F)cc2)nn(CC2CC2)c1Nc1cc(-n2nc(C)cc2C)ncn1` [Example 121, N-[1-(cyclopropylmethyl)-4-ethyl-3-(4-fluorophenyl)-1H-pyrazol-5-yl]-6-(3,5-dimethyl-1H-pyrazol-1-yl)pyrimidin-4-amine], the IC50 was < 1.6 nM.

`COC(=O)c1ccc(-c2c(C)c(Nc3cc(-n4nc(C)cc4C)ncn3)nn2C)cc1` [Example 122, methyl 4-(3-{[6-(3,5-dimethyl-1H-pyrazol-1-yl)pyrimidin-4-yl]amino}-1,4-dimethyl-1H-pyrazol-5-yl)benzoate] was tested, and the IC50 was 25 nM.

In the case of `CCc1c(Nc2cc(-n3nc(C)c(C(=O)N4CCC4)c3C)ncn2)nn(C)c1-c1ccc(F)cc1` [Example 123, azetidin-1-yl[1-(6-{[4-ethyl-5-(4-fluorophenyl)-1-methyl-1H-pyrazol-3-yl]amino}pyrimidin-4-yl)-3,5-dimethyl-1H-pyrazol-4-yl]methanone], the IC50 is reported as 395 nM.

`CCc1c(Nc2cc(-n3nc(C)c(C(=O)N4CC(F)(F)C4)c3C)ncn2)nn(C)c1-c1ccc(F)cc1` [Example 124, (3,3-difluoroazetidin-1-yl) [1-(6-{[4-ethyl-5-(4-fluorophenyl)-1-methyl-1H-pyrazol-3-yl]amino}pyrimidin-4-yl)-3,5-dimethyl-1H-pyrazol-4-yl]methanone] gave an IC50 of 155 nM.

In the case of `CCc1c(Nc2cc(-n3nc(C)cc3C(C)(C)O)ncn2)nn(C)c1-c1ccc(F)cc1` [Example 125, 2-[1-(6-{[4-ethyl-5-(4-fluorophenyl)-1-methyl-1H-pyrazol-3-yl]amino}pyrimidin-4-yl)-3-methyl-1H-pyrazol-5-yl]propan-2-ol], the IC50 is reported as 20.3 nM.

`CCc1c(Nc2cc(-n3nc(C)c(C(=O)N4CC(F)C4)c3C)ncn2)nn(C)c1-c1ccc(F)cc1` [Example 126, [1-(6-{[4-ethyl-5-(4-fluorophenyl)-1-methyl-1H-pyrazol-3-yl]amino}pyrimidin-4-yl)-3,5-dimethyl-1H-pyrazol-4-yl](3-fluoroazetidin-1-yl)methanone] was tested, and the IC50 was 975 nM.

`CCc1c(Nc2cc(-n3nc(C)c(C(=O)N(C)C)c3C)ncn2)nn(C)c1-c1ccc(F)cc1` [Example 127, 1-(6-{[4-ethyl-5-(4-fluorophenyl)-1-methyl-1H-pyrazol-3-yl]amino}pyrimidin-4-yl)-N,N,3,5-tetramethyl-1H-pyrazole-4-carboxamide] was tested, and the IC50 was 1200 nM.

`CCc1c(Nc2cc(-n3nc(C)c(C(=O)N4CCC(C(F)F)C4)c3C)ncn2)nn(C)c1-c1ccc(F)cc1` (centres unmarked) [Example 128, [3-(difluoromethyl)pyrrolidin-1-yl][1-(6-{[4-ethyl-5-(4-fluorophenyl)-1-methyl-1H-pyrazol-3-yl]amino}pyrimidin-4-yl)-3,5-dimethyl-1H-pyrazol-4-yl]methanone] was tested, and the IC50 was 1300 nM.

Compound `Cc1cc(C)n(-c2cc(Nc3c(Cl)c(-c4ccc(F)cc4)nn3CC(F)F)ncn2)n1` [Example 129, N-[4-chloro-1-(2,2-difluoroethyl)-3-(4-fluorophenyl)-1H-pyrazol-5-yl]-6-(3,5-dimethyl-1H-pyrazol-1-yl)pyrimidin-4-amine] has an IC50 of 78 nM.

For `Cc1nn(-c2cc(Nc3nn(CC(F)F)c(-c4ccc(F)cc4)c3Cl)ncn2)c(C)c1Cl` [Example 130, N-[4-chloro-1-(2,2-difluoroethyl)-5-(4-fluorophenyl)-1H-pyrazol-3-yl]-6-(4-chloro-3,5-dimethyl-1H-pyrazol-1-yl)pyrimidin-4-amine], the IC50 was 28 nM.

`CCc1c(Nc2cc(-n3nc(C)cc3C)ncn2)n[nH]c1-c1ccc(F)cc1C` [Example 131, 6-(3,5-dimethyl-1H-pyrazol-1-yl)-N-[4-ethyl-5-(4-fluoro-2-methylphenyl)-1H-pyrazol-3-yl]pyrimidin-4-amine] was tested, and the IC50 was 1600 nM.

`Cc1cc(C)n(-c2cc(Nc3nn(CC(F)F)c(-c4ccc(F)cc4)c3Cl)ncn2)n1` [Example 132, N-[4-chloro-1-(2,2-difluoroethyl)-5-(4-fluorophenyl)-1H-pyrazol-3-yl]-6-(3,5-dimethyl-1H-pyrazol-1-yl)pyrimidin-4-amine] gave an IC50 of 39 nM.

Compound `CCc1c(Nc2cc(-n3nc(C)c4c3CCCC4=O)ncn2)nn(C)c1-c1ccc(F)cc1` [Example 133, 1-(6-{[4-ethyl-5-(4-fluorophenyl)-1-methyl-1H-pyrazol-3-yl]amino}pyrimidin-4-yl)-3-methyl-1,5,6,7-tetrahydro-4H-indazol-4-one] has an IC50 of 57 nM.

In the case of `Cc1cc(C)n(-c2cc(Nc3n[nH]c(-c4ccc(C#N)cc4)c3C)ncn2)n1` [Example 135, 4-(3-{[6-(3,5-dimethyl-1H-pyrazol-1-yl)pyrimidin-4-yl]amino}-4-methyl-1H-pyrazol-5-yl)benzonitrile], the IC50 is reported as 700 nM.
